Assay [1] is described as follows: Inhibition of human rhinovirus 3C protease incubated for 1 hr by solid phase fluorescent assay. Also noted: species or system Human rhinovirus sp.
Assay [2] in a line: Inhibition of human rhinovirus 3C protease. Details: species or system Human rhinovirus sp.

As a reminder, the IC50 is the midpoint of a concentration-inhibition curve. Low values mean greater potency, high ones weaker potency. Take `C[C@H]1CC2=C(C(=O)c3ccc(O)cc3C2=O)[C@H](O)O1` (racemic): the IC50 in assay [1] stood at 20.3 µM.

On to `C[C@H]1CC2=C(C(=O)c3c(O)cc(O)cc3C2=O)[C@H](O)O1`, for which the IC50 was determined as 51.8 µM in assay [1] and 47 µM in assay [2].

`CC(C)Oc1ccc2c(c1)C(=O)C1=C(CO[C@@H](C)C1)C2=O` (racemic) came in with a concentration for half-maximal inhibition (IC50) in assay [1] of 35.7 µM.

With `C[C@H]1CC2=C(CO1)C(=O)c1ccc(O)cc1C2=O` (racemic), the IC50 in assay [1] came out at 30.9 µM.
